In patent US9169241B2, “Quinolinyloxyphenylsulfonamides” (Max-Planck-Gesellschaft Zur Forderung der Wissenschaften …, priority 2009, dated 2015):
Read-outs that look alike come from different tables or passages of the source.

What was measured:
Type in all cases: cell-based
[1] = test system: C8161; experiment: Cell vitality assay (ATP assay, CellTiter-Glo); details: Homo sapiens; C8161, 72 h; Table IIa; read-out: IC50 ATP-Assay after 72 h C8161
Summary of the method: (§1)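 IC50s reflect 50% loss of ATP-dependent luminescence versus DMSO control after a 72 h treatment of 1000 cells per well across 0.195–12.5 μM compound.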

[2] = test system: A172; experiment: Cell vitality assay (ATP assay, CellTiter-Glo); details: Homo sapiens, A 172; A172, 72 h; Table IIa; read-out: IC50 ATP-Assay after 72 h A172
Summary of the method: as §1

[3] = test system: MDA-MB231; experiment: Cell vitality assay (ATP assay, CellTiter-Glo); details: Homo sapiens, MDA-MB-231; MDA-MB231, 72 h; Table IIa; read-out: IC50 ATP-Assay after 72 h MDA-MB231
Summary of the method: as §1

[4] = test system: SF763; experiment: Apoptosis assay (Cellomics, nucleus condensation); details: Table III, read-out: Apoptosis induction in SF763
Summary of the method: (§2)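 Cells at 5000 per well were stained live with Hoechst 33342 and imaged on an automated fluorescence microscope after 24 h and 48 h compound exposure (12.5 μM down to 0.39 μM, twofold steps; DMSO control). Per-nucleus intensity variation quantified nuclear condensation; cell counts were also recorded.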

[5] = test system: U138; experiment: Apoptosis assay (Cellomics, nucleus condensation); details: Table III, read-out: Apoptosis induction in U138
Summary of the method: as §2

[6] = test system: C8161; experiment: Apoptosis assay (Cellomics, nucleus condensation); details: Homo sapiens, Table III, read-out: Apoptosis induction in C8161
Summary of the method: as §2

[7] = test system: SF126; experiment: Apoptosis assay (Cellomics, nucleus condensation); details: Homo sapiens, SF-126, Table III, read-out: Apoptosis induction in SF126
Summary of the method: as §2

[8] = test system: U118; experiment: Apoptosis assay (Cellomics, nucleus condensation); details: Table III, read-out: Apoptosis induction in U118
Summary of the method: as §2

[9] = test system: Hs578T; experiment: Apoptosis assay (Cellomics, nucleus condensation); details: Homo sapiens, Hs-578T, Table III, read-out: Apoptosis induction in Hs578T
Summary of the method: as §2

[10] = test system: viable cells in culture; experiment: Cell viability assay at 10 μM (CellTiter-Glo, Table VII); details: compound 10 μM, 72 h;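 further: graded A 0-20%; B 21-40%; C 41-60%; D over 60% viable cells relative to DMSO control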
Summary of the method: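 Cells were seeded at 1000 cells/well in 96-well plates in 100 μl culture medium and incubated for 72 h with 10 μM compound or a DMSO control. ATP content, which reflects metabolically active and therefore viable cells, was then determined by CellTiter-Glo luminescence (Promega) per the manufacturer's instructions and expressed relative to the DMSO control.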

[11] = test system: tumor cell; experiment: Matrigel outgrowth assay/branching assay (Table Va)
Summary of the method: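 Matrigel 3 mg/ml, polymerized 1 h 37° C; 5000 cells/well + cmpd 3.125/1.56/0.78 μM or DMSO. Imaged 48/72/96 h, 5× objective. Positive = total branching block.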

[12] = Homo sapiens, HCT-116, HCT116 def, read-out: percentage (%) of viable cells HCT 116def
[13] = Homo sapiens, HCT-116, HCT116 wt, read-out: percentage (%) of viable cells HCT 116wt
[14] = Homo sapiens, HT-29, HT29, read-out: percentage (%) of viable cells HT29
[15] = Homo sapiens, NCI-H358, H358, read-out: percentage (%) of viable cells H358
[16] = Homo sapiens, NCI-H1650, H1650, read-out: percentage (%) of viable cells H1650
[17] = Homo sapiens, NCI-H1666, H1666, read-out: percentage (%) of viable cells H1666
[18] = Homo sapiens, NCI-H1975, H1975, read-out: percentage (%) of viable cells H1975
[19] = Homo sapiens, NCI-H1993, H1993, read-out: percentage (%) of viable cells H1993
[20] = Homo sapiens, A549, read-out: percentage (%) of viable cells A549
[21] = Homo sapiens, HCC827, read-out: percentage (%) of viable cells HCC827
[22] = Homo sapiens, SW480, read-out: percentage (%) of viable cells SW480
[23] = RKO, read-out: percentage (%) of viable cells RKO
[24] = Homo sapiens, C8161 cells, read-out: Total branching inhibition in Matrigel C8161
[25] = Homo sapiens, Hs-578T, Hs578T cells, read-out: Total branching inhibition in Matrigel Hs578T
[26] = U118 cells, read-out: Total branching inhibition in Matrigel U118
[27] = U138 cells, read-out: Total branching inhibition in Matrigel U138

Work on `COc1cc2c(Oc3ccc(NS(=O)(=O)c4ccccc4C(F)(F)F)cc3Cl)ccnc2cc1OCCCN1CCN(C)CC1` [Example 87, N-(3-Chloro-4-{6-methoxy-7-[3-(4-methyl-piperazin-1-yl)-propoxy]-quinolin-4-yloxy}-phenyl)-2-trifluoromethyl-benzenesulfonamide] yielded an IC50 [1] of at most 12.5 µM, an IC50 [2] of at most 12.5 µM and an IC50 [3] of 12.5 to 50 µM. For the same compound, the IC50 [4] was at most 12.5 µM, the IC50 [5] was 12.5 to 50 µM and the IC50 [6] was at most 12.5 µM. The IC50 [7] was at most 12.5 µM, the IC50 [8] was at most 12.5 µM and the IC50 [9] was at most 12.5 µM. It also gave a viability at 10 µM [10, 12] of 0 to 20%, a viability at 10 µM [10, 13] of 41 to 60% and a viability at 10 µM [10, 14] of 0 to 20%. The viability at 10 µM [10, 15] was 0 to 20%, the viability at 10 µM [10, 16] was 21 to 40% and the viability at 10 µM [10, 17] was 41 to 60%. It also gave a viability at 10 µM [10, 18] of 0 to 20%, a viability at 10 µM [10, 19] of 41 to 60% and a viability at 10 µM [10, 20] of over 60%. It also gave a viability at 10 µM [10, 21] of 41 to 60%, a viability at 10 µM [10, 22] of 0 to 20% and a viability at 10 µM [10, 23] of 41 to 60%. For the same compound, the IC50 [11, 24] was at most 5 µM, the IC50 [11, 25] was at most 5 µM and the IC50 [11, 26] was at most 5 µM. For the same compound, the IC50 [11, 27] was 5 to 50 µM.

Work on `COc1cc2c(Oc3ccc(NS(=O)(=O)c4ccccc4C(F)(F)F)cc3F)ccnc2cc1OCCCN1CCCCC1C` (centres unmarked) [Example 99, N-(3-Fluoro-4-{6-methoxy-7-[3-(2-methyl-piperidin-1-yl)-propoxy]-quinolin-4-yloxy}-phenyl)-2-trifluoromethyl-benzenesulfonamide] yielded an IC50 [1] of 12.5 to 50 µM, an IC50 [2] of at most 12.5 µM and an IC50 [3] of at most 12.5 µM. For the same compound, the IC50 [4] was at most 12.5 µM, the IC50 [5] was at most 12.5 µM and the IC50 [6] was at most 12.5 µM. For the same compound, the IC50 [7] was at most 12.5 µM, the IC50 [8] was 12.5 to 50 µM and the IC50 [9] was at most 12.5 µM. It also gave a viability at 10 µM [10, 12] of over 60%, a viability at 10 µM [10, 13] of 0 to 20% and a viability at 10 µM [10, 14] of 21 to 40%. It also gave a viability at 10 µM [10, 15] of 0 to 20%, a viability at 10 µM [10, 16] of 21 to 40% and a viability at 10 µM [10, 17] of 41 to 60%. It also gave a viability at 10 µM [10, 18] of 21 to 40%, a viability at 10 µM [10, 19] of 21 to 40% and a viability at 10 µM [10, 20] of 21 to 40%. For the same compound, the viability at 10 µM [10, 21] was 41 to 60%, the viability at 10 µM [10, 22] was 0 to 20% and the viability at 10 µM [10, 23] was 21 to 40%. For the same compound, the IC50 [11, 24] was 5 to 50 µM, the IC50 [11, 25] was at most 5 µM and the IC50 [11, 26] was at most 5 µM. The IC50 [11, 27] was at most 5 µM.
